According to PubChem BioAssay AID330 (DTP/NCI, 2004):
Where “and” joins values, the source holds several entries; their conditions need not be identical. Equal entries are not always repeated. Toxic doses and inconclusive results are not listed.

Test system: P388 leukemia ip, CD2F1 mice, survival T/C
Test: NCI In Vivo Anticancer Drug Screen. Data for tumor model P388 Leukemia (intraperitoneal) in CD2F1 (CDF1) mice
Settings: endpoint: median survival time, higher = longer survival
In short: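 Mice carrying the transplanted tumor received test compound or vehicle. Survival was recorded in each group, and the value is the treated-group measurement divided by that of the vehicle-treated control group.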

[1] = dose: 60.0 mg/kg/injection, schedule: Q01DX005 (ip), vehicle: Klucel (hydroxypropylcellulose) (HPC)
[2] = dose: 120.0 mg/kg/injection, schedule: Q01DX005 (ip), vehicle: Klucel (hydroxypropylcellulose) (HPC)
[3] = dose: 240.0 mg/kg/injection, schedule: Q01DX005 (ip), vehicle: Klucel (hydroxypropylcellulose) (HPC)
[4] = dose: 50.0 mg/kg/injection, schedule: Q01DX005 (ip), vehicle: saline with Tween-80
[5] = dose: 100.0 mg/kg/injection, schedule: Q01DX005 (ip), vehicle: saline with Tween-80
[6] = dose: 200.0 mg/kg/injection, schedule: Q01DX005 (ip), vehicle: saline with Tween-80

COc1cccc2c1C(=O)c1c(O)c3c(c(O)c1C2=O)CC(O)(C(=O)CO)CC3OC1CC(N)C(O)C(C)O1.[Cl][Pt+2][Cl].[NH2-].[NH2-] (stereo not given)
T/C (dose: 8.0 mg/kg/injection, schedule: Q04DX003 (ip), vehicle: DMSO): 171 % of control and 182 % of control | T/C (dose: 16.0 mg/kg/injection, schedule: Q04DX003 (ip), vehicle: DMSO): 174 % of control and 193 % of control | T/C (dose: 32.0 mg/kg/injection, schedule: Q04DX003 (ip), vehicle: DMSO): 118 % of control | T/C (dose: 64.0 mg/kg/injection, schedule: Q04DX003 (ip), vehicle: DMSO): 100 % of control

N#C/C(=N\Nc1ccccc1Cl)C(=O)C1CC1
T/C [1]: 100 % of control | T/C [2]: 100 % of control | T/C [3]: 89 % of control

COc1cc(/C=C2\SC(=O)N(C)C2=O)ccc1O
T/C (dose: 50.0 mg/kg/injection, schedule: Q01DX009 (ip), vehicle: saline with Tween-80): 104 % of control | T/C (dose: 100.0 mg/kg/injection, schedule: Q01DX009 (ip), vehicle: saline with Tween-80): 90 % of control | T/C (dose: 200.0 mg/kg/injection, schedule: Q01DX009 (ip), vehicle: saline with Tween-80): 87 % of control

Cn1c2ccccc2c(=O)c2c([N+](=O)[O-])ccc(NCCN)c21
T/C (dose: 60.0 mg/kg/injection, schedule: Q01DX005 (ip), vehicle: saline): 109 % of control | T/C (dose: 120.0 mg/kg/injection, schedule: Q01DX005 (ip), vehicle: saline): 114 % of control

Cc1cc2cc3c4c(nnc(NN)c4c2o1)-c1ccccc1CC3
T/C (dose: 3.75 mg/kg/injection, schedule: Q01DX005 (ip), vehicle: saline with Tween-80): 99 % of control | T/C (dose: 7.5 mg/kg/injection, schedule: Q01DX005 (ip), vehicle: saline with Tween-80): 101 % of control | T/C (dose: 15.0 mg/kg/injection, schedule: Q01DX005 (ip), vehicle: saline with Tween-80): 99 % of control

N/C(=N\N=C\c1cc(Br)cc(Br)c1O)N/N=C/c1cc(Br)cc(Br)c1O
T/C (dose: 12.5 mg/kg/injection, schedule: Q01DX009 (ip), vehicle: distilled water + Tween-80): 88 % of control | T/C (dose: 25.0 mg/kg/injection, schedule: Q01DX009 (ip), vehicle: distilled water + Tween-80): 93 % of control | T/C (dose: 50.0 mg/kg/injection, schedule: Q01DX009 (ip), vehicle: distilled water + Tween-80): 90 % of control | T/C (dose: 200.0 mg/kg/injection, schedule: Q01DX009 (ip), vehicle: distilled water + Tween-80): 98 % of control

OC1CCN(c2c3ccccc3nc3ccccc23)CC1
T/C (dose: 12.5 mg/kg/injection, schedule: Q04DX002 (ip), vehicle: saline): 105 % of control | T/C (dose: 25.0 mg/kg/injection, schedule: Q04DX002 (ip), vehicle: saline): 113 % of control

Cn1c2cc([N+](=O)[O-])ccc2c(=O)c2c(O)cc3c(c21)C=CC(C)(C)O3
T/C (dose: 100.0 mg/kg/injection, schedule: Q01DX001 (ip), vehicle: saline with Tween-80): 100 % of control | T/C (dose: 200.0 mg/kg/injection, schedule: Q01DX001 (ip), vehicle: saline with Tween-80): 103 % of control

CC(C)(C#N)OC(=O)c1cccc(C(=O)OC(C)(C)C#N)c1Sc1ccccc1
T/C (dose: 25.0 mg/kg/injection, schedule: Q01DX001 (ip), vehicle: other): 99 % of control | T/C (dose: 50.0 mg/kg/injection, schedule: Q01DX001 (ip), vehicle: other): 105 % of control | T/C (dose: 100.0 mg/kg/injection, schedule: Q01DX001 (ip), vehicle: other): 98 % of control and 105 % of control

CC(=O)OCC1OC(Nc2ncc(-c3ccc(C)cc3)s2)C(OC(C)=O)C(OC(C)=O)C1OC(C)=O (stereo not given)
T/C [4]: 98 % of control | T/C [5]: 98 % of control | T/C [6]: 92 % of control

CCCCCC(=O)NC1C(O)OC(CO)C(O)C1O (stereo not given)
T/C (dose: 50.0 mg/kg/injection, schedule: Q01DX005 (ip), vehicle: Klucel (hydroxypropylcellulose) (HPC)): 106 % of control | T/C (dose: 100.0 mg/kg/injection, schedule: Q01DX005 (ip), vehicle: Klucel (hydroxypropylcellulose) (HPC)): 97 % of control

CN(CC(N)=O)C(=O)c1cnc2ccccc2c1
T/C (dose: 60.0 mg/kg/injection, schedule: Q01DX005 (ip), vehicle: saline with Tween-80): 98 % of control | T/C (dose: 120.0 mg/kg/injection, schedule: Q01DX005 (ip), vehicle: saline with Tween-80): 101 % of control | T/C (dose: 240.0 mg/kg/injection, schedule: Q01DX005 (ip), vehicle: saline with Tween-80): 99 % of control

C=C1C[C@]23C[C@@]1(O)CC[C@H]2[C@]12C=C[C@H](O1)C(C(=O)OCC)=C2[C@@H]3O
T/C [1]: 108 % of control | T/C [2]: 115 % of control | T/C [3]: 120 % of control

CCOC(=O)C1(C)C(=O)CC(c2ccccc2)CC1c1ccccc1 (stereo not given)
T/C [4]: 100 % of control | T/C [5]: 96 % of control | T/C [6]: 99 % of control
